Experimental data reported in US11345712B2, “Protein-targeting compounds and pharmaceutical compositions thereof, and their therapeutic applications” (BioTheryX, Inc., priority 2019, dated 2022).

System: MOLM-13 cells
Experiment: MOLM-13 cell viability assay (CellTiter-Glo)
Assay type: cell-based
Conditions: Homo sapiens, MOLM-13, 72 h, 3 days, concentration of 1 μM, read-out: Antiproliferative Activity (inhibition, MOLM-13 cell viability)
Method: MOLM-13 cells were cultured in RPMI 1640 media supplemented with 10% fetal bovine serum, streptomycin, and penicillin. The cells were plated in white walled 96-well plates at 2,500 cells/well. The cells were incubated in DMSO (control) or an indicated compound for 3 days at 37° C. and 5% CO2. Following the incubation period, 100 μL of CELLTITER-GLO® (CTG) reagent was added to each well. Following a 10 minutes incubation with shaking, luminescence was measured using an ENVISION® Multimode plate reader.

SMILES | cytotoxicity at 1 µM
CN(C)CCOc1cccc(CC(=O)NCc2scc3c2CN(C2CCC(=O)NC2=O)C3=O)c1 (stereo not drawn) [II-77, 2-(3-(2-(dimethylamino)ethoxy)phenyl)-N-((5-(2,6-dioxopiperidin-3-yl)-4-oxo-5,6-dihydro-4H-thieno[3,4-c]pyrrol-1-yl)methyl)acetamide] | < 25%
CC(=O)Nc1ccc(C(=O)C(=O)NCc2scc3c2CN(C2CCC(=O)NC2=O)C3=O)cc1 (stereo not drawn) [Compound I-20, 2-(4-acetamidophenyl)-N-((5-(2,6-dioxopiperidin-3-yl)-4-oxo-5,6-dihydro-4H-thieno[3,4-c]pyrrol-1-yl)methyl)-2-oxoacetamide] | < 25%
C=C(C(=O)NCc1scc2c1CN(C1CCC(=O)NC1=O)C2=O)c1ccc(C)c(Cl)c1 (stereo not drawn) [II-67, 2-(3-chloro-4-methylphenyl)-N-((5-(2,6-dioxopiperidin-3-yl)-4-oxo-5,6-dihydro-4H-thieno[3,4-c]pyrrol-1-yl)methyl)propenamide] | < 25%
CC(C)(C)C1CCC(C(=O)C(=O)NCc2cccc3c2CN(C2CCC(=O)NC2=O)C3=O)CC1 (stereo not drawn) [Compound I-67, 2-(4-(tert-butyl)cyclohexyl)-N-((2-(2,6-dioxopiperidin-3-yl)-1-oxoisoindolin-4-yl)methyl)-2-oxoacetamide] | 25 to 50%
Cc1ccc(NC(=O)NCc2cc3c(s2)C(=O)N(C2CCC(=O)N(COP(=O)(OC(C)(C)C)OC(C)(C)C)C2=O)C3)cc1N(C)C (stereo not drawn) [II-105, di-tert-butyl ((3-(2-((3-(3-(dimethylamino)-4-methylphenyl)ureido)-methyl)-6-oxo-4,6-dihydro-5H-thieno[2,3-c]pyrrol-5-yl)-2,6-dioxopiperidin-1-yl)methyl) phosphate] | < 25%
COc1c(F)cccc1CC(=O)NCc1cc2c(s1)C(=O)N(C1CCC(=O)NC1=O)C2 (stereo not drawn) [II-116, N-((5-(2,6-dioxopiperidin-3-yl)-6-oxo-5,6-dihydro-4H-thieno[2,3-c]pyrrol-2-yl)methyl)-2-(3-fluoro-2-methoxyphenyl)acetamide] | < 25%
CC(C)(C)c1ccc(C(=O)C(=O)NCc2cccc3c2C(=O)N(C2CCC(=O)NC2=O)C3)cc1 (stereo not drawn) [Compound I-38, 2-(4-(tert-butyl)phenyl)-N-((2-(2,6-dioxopiperidin-3-yl)-3-oxoisoindolin-4-yl)methyl)-2-oxoacetamide] | < 25%
Cc1ccc(C=CC(=O)NCc2cc3c(s2)C(=O)N(C2CCC(=O)NC2=O)C3)cc1Cl (stereo not drawn) [II-33, 3-(3-chloro-4-methylphenyl)-N-((5-(2,6-dioxopiperidin-3-yl)-6-oxo-5,6-dihydro-4H-thieno[2,3-c]pyrrol-2-yl)methyl)propenamide] | < 25%
CC(C)(C)c1ccc(C(=O)C(=O)NCc2c(F)ccc3c2CN(C2CCC(=O)NC2=O)C3=O)cc1 (stereo not drawn) [Compound I-50, 2-(4-(tert-butyl)phenyl)-N-((2-(2,6-dioxopiperidin-3-yl)-5-fluoro-1-oxoisoindolin-4-yl)methyl)-2-oxoacetamide] | < 25%
Cc1cc(NC(=O)NCc2cc3c(s2)C(=O)N(C2CCC(=O)NC2=O)C3)ccc1N1CCCC1 (stereo not drawn) [II-27, 1-((5-(2,6-dioxopiperidin-3-yl)-6-oxo-5,6-dihydro-4H-thieno[2,3-c]pyrrol-2-yl)methyl)-3-(3-methyl-4-(pyrrolidin-1-yl)phenyl)urea] | < 25%
CCN(CC)c1cc(NC(=O)NCc2cc3c(s2)C(=O)N(C2CCC(=O)NC2=O)C3)ccc1F (stereo not drawn) [II-97, 1-(3-(diethylamino)-4-fluorophenyl)-3-((5-(2,6-dioxopiperidin-3-yl)-6-oxo-5,6-dihydro-4H-thieno[2,3-c]pyrrol-2-yl)methyl)urea] | > 80%
Cc1ccc(C(=O)C(=O)NCc2scc3c2CN(C2CCC(=O)NC2=O)C3=O)cc1N(C)C (stereo not drawn) [Compound I-44, 2-(3-(dimethylamino)-4-methylphenyl)-N-((5-(2,6-dioxopiperidin-3-yl)-4-oxo-5,6-dihydro-4H-thieno[3,4-c]pyrrol-1-yl)methyl)-2-oxoacetamide] | > 80%
O=C1CCC(N2Cc3c(csc3CNC(=O)C(=O)c3cccs3)C2=O)C(=O)N1 (stereo not drawn) [Compound I-9, N-((5-(2,6-dioxopiperidin-3-yl)-4-oxo-5,6-dihydro-4H-thieno[3,4-c]pyrrol-1-yl)methyl)-2-(thiophen-2-yl)-2-oxoacetamide] | < 25%
Cc1cc(C(=O)C(=O)NCc2ccc3c(c2)CN(C2CCC(=O)NC2=O)C3=O)ccc1C(C)(C)C (stereo not drawn) [Compound I-55, 2-(3-methyl-4-(tert-butyl)phenyl)-N-((2-(2,6-dioxopiperidin-3-yl)-1-oxoisoindolin-5-yl)methyl)-2-oxoacetamide] | > 80%
O=C1CCC(N2Cc3c(csc3CNC(=O)C(=O)c3ccc(CN4CCOCC4)cc3)C2=O)C(=O)N1 (stereo not drawn) [Compound I-26, 2-(4-(morpholinomethyl)phenyl)-N-((5-(2,6-dioxopiperidin-3-yl)-4-oxo-5,6-dihydro-4H-thieno[3,4-c]pyrrol-1-yl)methyl)-2-oxoacetamide] | < 25%
O=C1CCC(N2Cc3c(csc3CNC(=O)C(=O)c3ccc(-c4ccccc4)cc3)C2=O)C(=O)N1 (stereo not drawn) [Compound I-21, 2-([1,1′-biphenyl]-4-yl)-N-((5-(2,6-dioxopiperidin-3-yl)-4-oxo-5,6-dihydro-4H-thieno[3,4-c]pyrrol-1-yl)methyl)-2-oxoacetamide] | 25 to 50%
Cc1ccc(N(C)C(=O)NCc2scc3c2CN(C2CCC(=O)NC2=O)C3=O)cc1Cl (stereo not drawn) [II-22, 1-(3-chloro-4-methylphenyl)-3-((5-(2,6-dioxopiperidin-3-yl)-4-oxo-5,6-dihydro-4H-thieno[3,4-c]pyrrol-1-yl)methyl)-1-methylurea] | 50 to 80%
O=C1CCC(N2Cc3c(CNC(=O)C(=O)c4ccc(C(F)(F)F)cc4)cccc3C2=O)C(=O)N1 (stereo not drawn) [Compound I-75, N-((2-(2,6-dioxopiperidin-3-yl)-1-oxoisoindolin-4-yl)methyl)-2-oxo-2-(4-(trifluoromethyl)phenyl)acetamide] | 25 to 50%
Cc1ccc(CNC(=O)NCCc2scc3c2CN(C2CCC(=O)NC2=O)C3=O)cc1Cl (stereo not drawn) [II-32, 1-(3-chloro-4-methylbenzyl)-3-(2-(5-(2,6-dioxopiperidin-3-yl)-4-oxo-5,6-dihydro-4H-thieno[3,4-c]pyrrol-1-yl)ethyl)urea] | > 80%
CCN(CC)c1cc(NC(=O)NCc2cc3c(s2)C(=O)N(C2CCC(=O)NC2=O)C3)ccc1C (stereo not drawn) [II-47, 1-(3-(diethylamino)-4-methylphenyl)-3-((5-(2,6-dioxopiperidin-3-yl)-6-oxo-5,6-dihydro-4H-thieno[2,3-c]pyrrol-2-yl)methyl)urea] | > 80%
O=C1CCC(N2Cc3c(NC(=O)C(=O)c4ccc(C5(C(F)(F)F)CC5)cc4)cccc3C2=O)C(=O)N1 (stereo not drawn) [Compound I-57, N-(2-(2,6-dioxopiperidin-3-yl)-1-oxoisoindolin-4-yl)-2-oxo-2-(4-(1-(trifluoromethyl)cyclopropyl)phenyl)acetamide] | < 25%
O=C1CCC(N2Cc3c(csc3CNC(=O)C(=O)c3ccc(C4CC4)cc3)C2=O)C(=O)N1 (stereo not drawn) [Compound I-12, 2-(4-cyclopropylphenyl)-N-((5-(2,6-dioxopiperidin-3-yl)-4-oxo-5,6-dihydro-4H-thieno[3,4-c]pyrrol-1-yl)methyl)-2-oxoacetamide] | < 25%
Cc1ccc(C=CC(=O)NCc2scc3c2CN(C2CCC(=O)NC2=O)C3=O)cc1Cl (stereo not drawn) [II-34, 3-(3-chloro-4-methylphenyl)-N-((5-(2,6-dioxopiperidin-3-yl)-4-oxo-5,6-dihydro-4H-thieno[3,4-c]pyrrol-1-yl)methyl)propenamide] | > 80%
CC(C)c1ccc(C(C(=O)NCc2scc3c2CN(C2CCC(=O)NC2=O)C3=O)C(C)C)cc1 (stereo not drawn) [II-106, N-((5-(2,6-dioxopiperidin-3-yl)-4-oxo-5,6-dihydro-4H-thieno[3,4-c]pyrrol-1-yl)methyl)-2-(4-isopropylphenyl)-3-methylbutanamide] | < 25%
Cc1cc(C(C)(C)C)cc(C)c1C(=O)C(=O)NCc1ccc2c(c1)CN(C1CCC(=O)NC1=O)C2=O (stereo not drawn) [Compound I-104, 2-(4-(tert-butyl)-2,6-dimethylphenyl)-N-((2-(2,6-dioxopiperidin-3-yl)-1-oxoisoindolin-5-yl)methyl)-2-oxoacetamide] | > 80%
O=C1CCC(N2Cc3cc(CNC(=O)NCc4c(Cl)cccc4Cl)sc3C2=O)C(=O)N1 (stereo not drawn) [II-36, 1-(2,6-dichlorobenzyl)-3-((5-(2,6-dioxopiperidin-3-yl)-6-oxo-5,6-dihydro-4H-thieno[2,3-c]pyrrol-2-yl)methyl)urea] | 50 to 80%
O=C1CCC(N2Cc3c(csc3CNC(=O)C(=O)c3ccc(Cl)c(Cl)c3)C2=O)C(=O)N1 (stereo not drawn) [Compound I-24, 2-(3,4-dichlorophenyl)-N-((5-(2,6-dioxopiperidin-3-yl)-4-oxo-5,6-dihydro-4H-thieno[3,4-c]pyrrol-1-yl)methyl)-2-oxoacetamide] | 25 to 50%
Cc1ccc(N(C)C(=O)N(C)Cc2scc3c2CN(C2CCC(=O)NC2=O)C3=O)cc1Cl (stereo not drawn) [II-20, 1-(3-chloro-4-methylphenyl)-3-((5-(2,6-dioxopiperidin-3-yl)-4-oxo-5,6-dihydro-4H-thieno[3,4-c]pyrrol-1-yl)methyl)-1,3-dimethylurea] | < 25%
CC(C)(C)c1ccc(C(=O)C(=O)NCc2ccc3c(c2)C(=O)N(C2CCC(=O)NC2=O)C3=O)cc1 (stereo not drawn) [Compound I-32, 2-(4-(tert-butyl)phenyl)-N-((2-(2,6-dioxopiperidin-3-yl)-1,3-dioxoisoindolin-5-yl)methyl)-2-oxoacetamide] | > 80%
O=C1CCC(N2Cc3cc(CNC(=O)C(=O)c4ccncc4)ccc3C2=O)C(=O)N1 (stereo not drawn) [Compound I-103, N-((2-(2,6-dioxopiperidin-3-yl)-1-oxoisoindolin-5-yl)methyl)-2-oxo-2-(pyridin-4-yl)acetamide] | < 25%
